Assay results published in PubChem BioAssay AID256 (DTP/NCI, 2004).
“And” between values parts separate entries of the source, which are not always exact repeats. Equal values may be shown once. Inconclusive results and toxic doses are left out. Rule for the calls: active = survival T/C of 150% or more; inactive = T/C below 125% in these data.

Tested on: CD2F1 mice, L1210 leukemia ip, survival T/C
Assay: NCI In Vivo Anticancer Drug Screen. Data for tumor model L1210 Leukemia (intraperitoneal) in CD2F1 (CDF1) mice
Settings: higher = longer survival
Summary of the method: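 Implant tumor; dose compound or vehicle; measure endpoint in both groups; report treated divided by control.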

[1] = endpoint: mean survival time, dose: 100.0 mg/kg/injection, schedule: Q04DX003 (ip), vehicle: saline with Tween-80
[2] = endpoint: mean survival time, dose: 200.0 mg/kg/injection, schedule: Q04DX003 (ip), vehicle: saline with Tween-80
[3] = endpoint: mean survival time, dose: 400.0 mg/kg/injection, schedule: Q04DX003 (ip), vehicle: saline with Tween-80
[4] = endpoint: mean survival time, dose: 100.0 mg/kg/injection, schedule: Q01DX009 (ip), vehicle: saline with Tween-80
[5] = endpoint: mean survival time, dose: 200.0 mg/kg/injection, schedule: Q01DX009 (ip), vehicle: saline with Tween-80
[6] = endpoint: mean survival time, dose: 400.0 mg/kg/injection, schedule: Q01DX009 (ip), vehicle: saline with Tween-80
[7] = endpoint: mean survival time, dose: 100.0 mg/kg/injection, schedule: Q04DX002 (ip), vehicle: saline with Tween-80
[8] = endpoint: mean survival time, dose: 200.0 mg/kg/injection, schedule: Q04DX002 (ip), vehicle: saline with Tween-80
[9] = endpoint: mean survival time, dose: 75.0 mg/kg/injection, schedule: Q01DX001 (ip), vehicle: saline
[10] = endpoint: mean survival time, dose: 150.0 mg/kg/injection, schedule: Q01DX001 (ip), vehicle: saline
[11] = endpoint: mean survival time, dose: 100.0 mg/kg/injection, schedule: Q01DX001 (ip), vehicle: saline with Tween-80
[12] = endpoint: mean survival time, dose: 200.0 mg/kg/injection, schedule: Q01DX001 (ip), vehicle: saline with Tween-80
[13] = endpoint: mean survival time, dose: 25.0 mg/kg/injection, schedule: Q04DX003 (ip), vehicle: saline with Tween-80
[14] = endpoint: mean survival time, dose: 50.0 mg/kg/injection, schedule: Q04DX003 (ip), vehicle: saline with Tween-80

Measured: T/C

CC12CCC(=O)C=C1CCC1C2C(=O)CC2(C)C1CCC2(O)C(=O)Cn1c(=O)cc[nH]c1=O (configuration not stated)
inactive: endpoint: mean survival time, dose: 12.5 mg/kg/injection, schedule: Q04DX003 (ip), vehicle: Klucel (hydroxypropylcellulose) (HPC) 96 % of control | endpoint: mean survival time, dose: 25.0 mg/kg/injection, schedule: Q04DX003 (ip), vehicle: Klucel (hydroxypropylcellulose) (HPC) 96 % of control | endpoint: mean survival time, dose: 50.0 mg/kg/injection, schedule: Q04DX003 (ip), vehicle: Klucel (hydroxypropylcellulose) (HPC) 103 % of control | endpoint: mean survival time, dose: 100.0 mg/kg/injection, schedule: Q04DX003 (ip), vehicle: Klucel (hydroxypropylcellulose) (HPC) 97 % of control | endpoint: mean survival time, dose: 200.0 mg/kg/injection, schedule: Q04DX003 (ip), vehicle: Klucel (hydroxypropylcellulose) (HPC) 97 % of control

c1ccc(CSC(SCc2ccccc2)c2ccccc2)cc1
inactive: endpoint: mean survival time, dose: 100.0 mg/kg/injection, schedule: Q01DX009 (ip), vehicle: Klucel (hydroxypropylcellulose) (HPC) 86 % of control | [1] 96 % of control | endpoint: mean survival time, dose: 200.0 mg/kg/injection, schedule: Q01DX009 (ip), vehicle: Klucel (hydroxypropylcellulose) (HPC) 92 % of control | [2] 100 % of control | endpoint: mean survival time, dose: 400.0 mg/kg/injection, schedule: Q01DX009 (ip), vehicle: Klucel (hydroxypropylcellulose) (HPC) 92 % of control | [3] 97 % of control

CC(=O)CC(=O)Nc1cc(Cl)c(NC(=O)CC(C)=O)cc1Cl
inactive: endpoint: mean survival time, dose: 44.0 mg/kg/injection, schedule: Q04DX003 (ip), vehicle: saline with Tween-80 104 % of control | endpoint: mean survival time, dose: 66.0 mg/kg/injection, schedule: Q04DX003 (ip), vehicle: saline with Tween-80 96 % of control | [4] 97 % of control | [1] 98 % of control | endpoint: mean survival time, dose: 150.0 mg/kg/injection, schedule: Q04DX003 (ip), vehicle: saline with Tween-80 100 % of control | [5] 97 % of control | [6] 97 % of control

C=CCCCCCCCCC(=O)N(CC#N)CC(C)C
inactive: [4] 104 % of control | [1] 96 % of control | [5] 96 % of control | [2] 100 % of control | [3] 94 % of control

C[n+]1cccc(C(=O)N/N=C/CCc2ccccc2)c1
inactive: endpoint: mean survival time, dose: 12.5 mg/kg/injection, schedule: Q01DX009 (ip), vehicle: saline with Tween-80 92 % of control | endpoint: mean survival time, dose: 25.0 mg/kg/injection, schedule: Q01DX009 (ip), vehicle: saline with Tween-80 93 % of control | endpoint: mean survival time, dose: 25.0 mg/kg/injection, schedule: Q04DX002 (ip), vehicle: saline with Tween-80 100 % of control | endpoint: mean survival time, dose: 50.0 mg/kg/injection, schedule: Q01DX009 (ip), vehicle: saline with Tween-80 97 % of control | endpoint: mean survival time, dose: 50.0 mg/kg/injection, schedule: Q04DX002 (ip), vehicle: saline with Tween-80 95 % of control | [4] 97 % of control | [7] 101 % of control | [8] 97 % of control

[Cl][Pt+2][Cl].[N-]=C(N)/N=C(\[NH-])N
inactive: endpoint: median survival time, dose: 12.5 mg/kg/injection, schedule: Q04DX003 (ip), vehicle: distilled water + Tween-80 104 % of control | endpoint: median survival time, dose: 25.0 mg/kg/injection, schedule: Q04DX003 (ip), vehicle: distilled water + Tween-80 101 % of control | endpoint: median survival time, dose: 50.0 mg/kg/injection, schedule: Q04DX003 (ip), vehicle: distilled water + Tween-80 101 % of control | endpoint: median survival time, dose: 100.0 mg/kg/injection, schedule: Q04DX003 (ip), vehicle: distilled water + Tween-80 108 % of control | endpoint: median survival time, dose: 200.0 mg/kg/injection, schedule: Q04DX003 (ip), vehicle: distilled water + Tween-80 108 % of control

CC(CC(C)(C)C)O[Si](C)C1(C)CCCCC1 (configuration not stated)
inactive: [1] 102 % of control | [2] 112 % of control | [3] 106 % of control

CC12CC(c3ccccc3)C(C)(C(c3ccccc3)=C1c1ccccc1)C2(O)c1ccccc1 (configuration not stated)
inactive: [7] 94 % of control | [8] 86 % of control | endpoint: mean survival time, dose: 400.0 mg/kg/injection, schedule: Q04DX002 (ip), vehicle: saline with Tween-80 94 % of control

Cc1cccc(/C=N\OCCc2ccccc2)n1
inactive: [4] 94 % of control | [1] 100 % of control | [5] 98 % of control | [2] 96 % of control | [6] 93 % of control | [3] 91 % of control

CCN1C2CCC1CC(O)C2 (configuration not stated)
inactive: endpoint: mean survival time, dose: 100.0 mg/kg/injection, schedule: Q04DX002 (ip), vehicle: saline 94 % of control | endpoint: mean survival time, dose: 200.0 mg/kg/injection, schedule: Q04DX002 (ip), vehicle: saline 94 % of control | endpoint: mean survival time, dose: 400.0 mg/kg/injection, schedule: Q04DX002 (ip), vehicle: saline 105 % of control

CCOC(=O)C(C=O)(NC(=O)c1ccccc1)OCC (configuration not stated)
inactive: [4] 100 % of control | [5] 105 % of control | [6] 96 % of control

O=C1C=CC(=O)C(Br)C1Br (configuration not stated)
inactive: endpoint: mean survival time, dose: 37.5 mg/kg/injection, schedule: Q01DX009 (ip), vehicle: saline 93 % of control | endpoint: mean survival time, dose: 37.5 mg/kg/injection, schedule: Q04DX003 (ip), vehicle: saline 95 % of control | [9] 97 % of control | endpoint: mean survival time, dose: 75.0 mg/kg/injection, schedule: Q01DX009 (ip), vehicle: saline 93 % of control | endpoint: mean survival time, dose: 75.0 mg/kg/injection, schedule: Q04DX003 (ip), vehicle: saline 103 % of control | [10] 101 % of control | endpoint: mean survival time, dose: 150.0 mg/kg/injection, schedule: Q01DX009 (ip), vehicle: saline 94 % of control | endpoint: mean survival time, dose: 150.0 mg/kg/injection, schedule: Q04DX003 (ip), vehicle: saline 93 % of control

Nc1cccc(OCc2ccc([N+](=O)[O-])cc2)c1
inactive: endpoint: mean survival time, dose: 100.0 mg/kg/injection, schedule: Q04DX002 (ip), vehicle: Klucel (hydroxypropylcellulose) (HPC) 86 % of control | endpoint: mean survival time, dose: 200.0 mg/kg/injection, schedule: Q04DX002 (ip), vehicle: Klucel (hydroxypropylcellulose) (HPC) 107 % of control | endpoint: mean survival time, dose: 400.0 mg/kg/injection, schedule: Q04DX002 (ip), vehicle: Klucel (hydroxypropylcellulose) (HPC) 95 % of control

CC(C)N=C(N)c1ccc(NC(=O)c2ccc(C(=O)Nc3ccc(C(N)=NC(C)C)cc3)cc2)cc1
inactive: endpoint: mean survival time, dose: 6.25 mg/kg/injection, schedule: Q01DX Z (ip), vehicle: water 93 % of control

CC1(C)CC(C)(c2ccc(O)cc2)c2ccccc2O1 (configuration not stated)
inactive: [4] 90 % of control | [1] 92 % of control | [5] 92 % of control | [2] 92 % of control | [6] 91 % of control | [3] 90 % of control

OCC1OC(Nc2ncnc3nc[nH]c23)C(O)C1O (configuration not stated)
inactive: [11] 108 % of control | [4] 96 % of control | [12] 94 % of control | [5] 108 % of control | endpoint: mean survival time, dose: 400.0 mg/kg/injection, schedule: Q01DX001 (ip), vehicle: saline with Tween-80 92 % of control | [6] 100 % of control

O=Cc1[nH]c(=S)[nH]c(=O)c1Cc1ccc(Cl)cc1
inactive: [1] 104 % of control

C[n+]1cc(Br)c2ccccc2c1
inactive: [9] 100 % of control | [10] 103 % of control

NC(N)=N/N=C/c1ccc(Cl)c(Cl)c1
inactive: endpoint: mean survival time, dose: 12.5 mg/kg/injection, schedule: Q04DX003 (ip), vehicle: saline with Tween-80 105 % of control | [13] 97 % of control | [14] 94 % of control

F[B-](F)(F)F
inactive: endpoint: mean survival time, dose: 12.5 mg/kg/injection, schedule: Q01DX009 (ip), vehicle: gum acacia 94 % of control and 106 % of control | endpoint: mean survival time, dose: 25.0 mg/kg/injection, schedule: Q01DX009 (ip), vehicle: gum acacia 98 % of control | endpoint: mean survival time, dose: 50.0 mg/kg/injection, schedule: Q01DX009 (ip), vehicle: gum acacia 96 % of control and 106 % of control | endpoint: mean survival time, dose: 100.0 mg/kg/injection, schedule: Q01DX009 (ip), vehicle: gum acacia 95 % of control and 101 % of control | endpoint: mean survival time, dose: 200.0 mg/kg/injection, schedule: Q01DX009 (ip), vehicle: gum acacia 109 % of control | endpoint: mean survival time, dose: 400.0 mg/kg/injection, schedule: Q01DX009 (ip), vehicle: gum acacia 98 % of control

CC(C)(O)C#CC#CC(C)(C)O
inactive: [11] 102 % of control | [12] 96 % of control

Cc1ccnc(N)c1.[Cl-].[Cl-].[Cl-].[Cl-].[Pt+2]
inactive: [13] 106 % of control | [14] 101 % of control

Cc1ccc(/C=N\N=C\c2ccc(C)cc2)cc1
inactive: [1] 90 % of control | [3] 95 % of control

CN(C)CCOc1ccccn1
inactive: [4] 93 % of control | [1] 92 % of control | [5] 95 % of control | [2] 87 % of control | [6] 87 % of control | [3] 87 % of control
